Results as given in paper PMC13289212, “HIVIL: A human in vitro inflammatory liver model recapitulates immune-associated drug effects with high predictivity” (NAM journal, 2025).
Values joined by “and” are separate entries in the source; they are usually repeats but may differ in a detail not shown here. Equal values may be shown once. Read-outs that look alike come from different tables or passages of the source.

Experiments:
[1] = Cammett et al. 2009, Mendes et al. 2014, cited from earlier work
[2] = Cell viability of iHeps mono-culture; type: cell-based; conditions: human
Source text: Human iPSC cell line iPS (IMR90)-4 was purchased from WiCell Research Institute (Madison, WI), and maintained with a feeder-free method according to the instruction from […] Technologies (Vancouver, BC, Canada). The protocol of differentiation towards iKCs and iHeps as described previously with slight modification ([Tasnim et al., 2019]; [Cai et al., 2012]), respectively. The re-optimized protocol to generate iKCs is discussed in Results section. More details are provided in Supplementary Methods. After differentiation, iKCs was harvested using 0.05 % trypsin-EDTA (Gibco, Waltham, Massachusetts, USA), while iHeps were dissociated with TrypLE^TM (Gibco). iHep suspension was further filtered through a 40 µm cell strainer to remove extracellular matrix clumps. Cell suspension was centrifuged at 1000 rpm for 5 min. For co-culture set up, tissue culture plates were coated with Rat tail collagen I (Gibco) diluted 100-fold in 0.02 N acetic acid, and incubated at 37 °C for 1 h and washed 3 times with PBS. According to the protocol optimized by [Tasnim et al. (2019)], iKCs was firstly seeded at a density of 14,000 per well on 96-well plate with Advanced DMEM (plus supplements) containing 5 % FBS. On the following day, iHeps were added at a density of 35,000 per well in Williams’ Medium E (plus supplements) (iHep: iKCs ratio = 2.5: 1). […]

IL-6 [3] = tested on: IL-6; set-up: method as in ref Hassan et al. 2016; Giustarini et al. 2019; Higuchi et al. 2012; Dik et al. 2018; conditions: ref Hassan et al. 2016; Giustarini et al. 2019; Higuchi et al. 2012; Dik et al. 2018; cited from earlier work
IL-6 [4] = experiment: IL-6 ELISA in HIVIL (iKCs co-cultured with iHeps, LPS, 48 hr); type: cell-based, human; conditions: HIVIL
IL-6 [5] = experiment: IL-6 ELISA in iPSC(F4)-derived HIVIL; type: cell-based, human
Method: Enzyme-linked immunosorbent assay (ELISA) for measurement of cytokines: Interleukin-6 (IL-6), interleukin-10 (IL-10) and tumor necrosis factor alpha (TNFα) levels in the media were measured using the corresponding human-based ELISA kits (Abcam, Cambridge, United Kingdom) according to manufacturer’s instructions. The cytokine production from dosed cells was normalized with the viability value from the same well. The normalized cytokine level upon drug treatments was further presented as percentage of DMSO+LPS. Normalization to viability per well ensures that any changes in cytokines are not due to changes in cell numbers upon drug treatment and normalization to DMSO+LPS allows better comparison between different batches of experiments. This normalization approach has been used in previous studies (Rose et al. 2016).

N[C@@H]1[C@H]2CN(c3nc4c(cc3F)c(=O)c(C(=O)O)cn4-c3ccc(F)cc3F)C[C@@H]12 [TVX, Trovafloxacin]
Cmax ([1]; ref in each cell: Ademisoye et al. 2018, Xu et al. 2008, Agabeyoglu and Incecayir 2009, Rojanasthien et al. 2007, Reunanen et al. 1992, Li et al. 2002, Hong-mei et al. 2013, Bareggi et al. 1987, Jiang et al. 2008): 5 µM | Cmax ([1]; ref in each cell: Xu et al. 2008): 5 µM | viability [2]: 53.7% | Reported in-vivo (murine) responses: IL-6 (IL-6 [3]): IL-6↑ | effect on cytokine production (IL-6 [4]; high doses (>25 μM)): inhibitory effects | IL-6 induction (IL-6 [4]; low dose 3.125 μM and 6.25 μM): 1.5 fold | IC50 (IL-6 [4]; Homo sapiens, LPS, 48 hr): 16.2 µM | increase in IL-6 (IL-6 [5]; 6.25 μM): 1.2 fold | inhibition of IL-6 production (IL-6 [5]; higher concentrations): 80% and 97%
